The values that follow come from PMC6675120, “Potent and selective inhibitors for M32 metallocarboxypeptidases identified from high-throughput screening of anti-kinetoplastid chemical boxes” (PLoS Neglected Tropical Diseases, 2019).

One assay has as its system T. cruzi. More on the design: method as in https://pubchem.ncbi.nlm.nih.gov/compound/91800813. The note with it: ref https://pubchem.ncbi.nlm.nih.gov/compound/91800813; cited from earlier work.
Another assay deals with TcMCP-1 (Trypanosoma cruzi, UniProt Q6ZXC0). As to the kind of experiment: Continuous fluorogenic (FRET) TcMCP-1 assay with Abz-LKFK(Dnp)-OH, primary and secondary screening. Format: biochemical. Details: inhibition: dose or concentration left out as unconfirmed.

Read-outs that look alike come from different tables or passages of the source.

Sequence of TcMCP-1 (Q6ZXC0 entry or part of it): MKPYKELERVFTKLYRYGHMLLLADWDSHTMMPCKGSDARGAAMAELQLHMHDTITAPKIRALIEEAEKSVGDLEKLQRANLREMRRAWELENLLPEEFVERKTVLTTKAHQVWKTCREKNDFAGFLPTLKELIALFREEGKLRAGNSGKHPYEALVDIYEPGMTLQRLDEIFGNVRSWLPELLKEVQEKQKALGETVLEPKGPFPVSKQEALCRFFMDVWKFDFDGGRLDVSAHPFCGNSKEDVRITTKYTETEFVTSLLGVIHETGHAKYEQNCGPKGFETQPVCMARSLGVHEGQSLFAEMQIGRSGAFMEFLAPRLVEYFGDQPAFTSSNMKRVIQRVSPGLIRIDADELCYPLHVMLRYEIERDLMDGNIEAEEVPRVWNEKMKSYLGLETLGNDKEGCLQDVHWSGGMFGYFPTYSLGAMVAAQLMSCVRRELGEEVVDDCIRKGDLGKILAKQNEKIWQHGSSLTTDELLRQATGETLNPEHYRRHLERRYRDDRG

Broadly, the IC50 is the concentration that inhibits the measured activity by half. In general, inhibition refers to the drop in the measured response relative to a control, in per cent. As for `N#Cc1ccc(S(=O)(=O)N2CCN(Cc3cccc(-c4ccncc4)c3)CC2)cc1` [TCMDC-143620], in the assay with T. cruzi, the “activity against T. cruzi in culture” value is listed as “potent activity”. Further, the 50% inhibitory concentration (IC50) was 694 nM against TcMCP-1 and at most 10000 nM against TcMCP-1 (secondary screening, two-fold dilutions 7,5 pM to 62,5 μM, KM/[S] ~ 1, no replicates). Further, the “TcMCP-1 Hill Slope” value at TcMCP-1 (four-parameter Hill fit of dose-response curve) is -1,06. In addition, on TcMCP-1 (read-out: TcMCP-1 Secondary screening Inhibition (%)), the inhibition was determined as 96.7%. The “TcMCP-1 2º/1º ratio” value at TcMCP-1 (secondary (31,5 µM) / primary (25 µM) inhibition) was 1,18. Also, at TcMCP-1 (single inhibitor concentration 25 µM), the inhibition at 25 µM amounted to 82.1%.
